# Source: US8084589B2, “Phosphoramidite nucleoside analogs” (University of Massachusetts, priority 2007, dated 2011)
# Strand notation (5' to 3'): a small letter for the sugar, then the base; units joined by * are phosphorothioate-linked, units joined directly phosphodiester-linked; [ ] holds rarer units or linkages, { } end groups; capitals alone tell only the bases. [TEGam] = internucleoside phosphate triester carrying a triethylene glycol amino linker (free amine, native form); {Y} = hydroxypropyldithiopropyl phosphate linker, HOCH2CH2SSCH2CH2CH2O-P(O)(OH)-; d = 2'-deoxy (DNA)
# Legend:
# [1] = Storage stability of synthon 2 (coupling efficiency on the synthesizer); type: physicochemical; conditions: for coupling yield of the monomer: in anhydrous acetonitrile at room temperature, 3 minutes coupling
# Experimental: Usually the compound was dissolved in anhydrous acetonitrile under argon and was kept on the synthesizer for up to two weeks at room temperature. The coupling yield of the monomer for the 3 minutes coupling duration was 98-99% after 7-8 days, and for the same coupling conditions coupling yield decreased to 90% after additional 10-12 days. Coupling yields were assessed using a DMTr detector reading on the synthesizer.
# [2] = Melting temperature of oligonucleotide duplexes (UV, FRET loss or dequenching); type: physicochemical; conditions: for Melting point, ° C, method: Table 5, method UV
# Experimental: Watson-Crick base paring properties of the modified oligonucleotides were evaluated by comparison of melting temperatures of a duplex formed between the amino-functionalized oligonucleotide CGG AAA GT*C CCT CAT AGC T (I, SEQ ID NO: 1) and its complementary unmodified oligonucleotide 3′[…] 5′ (Duplex 1, SEQ ID NO:5) and a control, unmodified duplex with the same sequence (Duplex 2). The melting temperatures were almost equal, i.e. 65 and 66° C. for Duplexes 1 and 2, respectively.
# The conjugates were characterized by HPLC analysis, mass spectrometry and UV/VIS spectroscopy. Briefly, spectral measurements were performed using a Cary 50 Bio UV-visible spectrophotometer. Melting temperatures were determined with a step-wise Peltier temperature ramping bath in 2 degree mode in a temperature-controlled cuvette holder. Electrospray mass spectrometry (MS) was performed with a LTQ Linear Ion trap mass spectrometer (Thermo, Inc) with use of a Nanomate (Advion, Inc.) robot. Spectra were obtained in the negative ion mode with 1.8 kV spray voltage and 0.8 PSI back pressure (UMMS Proteomic and Mass Spectrometry Core Facility, University of Massachusetts Medical School, Worcester, Mass.). Sample solutions were adjusted to 75% methanol before MS analysis. The full mass spectra were acquired for 30 seconds from m/z 400-2000 using 2 ms scans and 10 ms maximum injection time.
# The synthesized ODN duplex probes were characterized by comparing melting temperatures of native, non-modified ODN pair to those duplexes prepared by using covalently labeled ODNs.
# The FRET between Cy5.5 and the acceptor on complementary ODN was observed after Cy5.5-ODN3 was incubated with Cy7- or 800CW-linked to ODN2 (see FIGS. 20A-B). […] In the presence of internucleoside phosphate-linked Cy7 on the complementary strand it was observed more than 10 times lower fluorescence of Cy5.5 measured at 700 nm (λex=675 nm) and a 3-fold higher fluorescence of Cy7 (if compared to the duplex formed between Cy7-ODN2 and ODN3), FIGS. 20A-D. The formation of duplexes and reversible FRET effects were further studied in more detail by following sigmoidal dependence of the temperature-dependent increase of Cy5.5 fluorescence in a microcuvette of a spectrofluorometer. These experiments enabled measurement of two parameters: melting temperatures and the overall FRET efficacy (Table 5).
# [3] = Storage stability of oligonucleotide conjugate in water (HPLC); type: physicochemical; conditions: deionized water, −20° C., approximately four months
# Experimental: A limited stability study of one of the novel oligonucleotide conjugates, VIII, which contained 800CW dye at the 8th nucleoside from the 5′-end (see Table 2), was performed.
# NF-κB p50 = target: T1, NF-κB p50 (Homo sapiens, UniProt P19838); assay: EMSA of recombinant p50 binding to fluorescent duplexes; conditions: both Cy5.5-800CW and Cy5.5-Cy7 donor/acceptor pairs
# T1 sequence (P19838 1-433 limits assumed): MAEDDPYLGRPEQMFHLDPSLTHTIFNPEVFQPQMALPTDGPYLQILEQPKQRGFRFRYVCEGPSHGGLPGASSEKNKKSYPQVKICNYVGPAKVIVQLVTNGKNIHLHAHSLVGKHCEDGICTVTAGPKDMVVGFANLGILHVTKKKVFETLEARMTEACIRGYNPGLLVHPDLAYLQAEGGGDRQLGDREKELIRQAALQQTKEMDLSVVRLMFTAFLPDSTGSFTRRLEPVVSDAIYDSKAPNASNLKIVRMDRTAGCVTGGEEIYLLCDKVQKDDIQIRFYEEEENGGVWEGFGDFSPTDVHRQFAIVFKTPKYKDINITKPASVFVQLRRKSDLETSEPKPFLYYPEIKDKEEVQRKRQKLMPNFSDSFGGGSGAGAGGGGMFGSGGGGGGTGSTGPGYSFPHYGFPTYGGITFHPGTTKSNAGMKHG
# From the text: The binding of NF-κB p50 to duplexes was initially followed by using two methods: 1) electrophoretic mobility shift essay (EMSA) in polyacrylamide gels; 2) fluorescence energy transfer loss measurements after adding p50 to the duplex in solution. In the first case the components of the mixture are off equilibrium since the free duplex is separated due to a faster migration in electric field during the analysis. The second method afforded measurements at the equilibrium but the observed fluorescence change values are affected by the background fluorescence due to the presence of the free duplex. […] Fluorescence of both free and bound duplex could be imaged by using a transillumination scanner and CCD camera that detected emitted light at two wavelengths—[…] (FIG. 21A) and 800 nm (FIG. 21B, fused image—FIG. 21C). […] However, by comparing Cy5.5-labeled duplexes (ODN2/Cy5.5-ODN3 and ODN4/Cy5.5-ODN5) it was determined that in the case of full-length binding sites 94% of fluorescence co-migrated with p50, whereas only 63% co-migrated with ODN4/Cy5.5-ODN5 duplex (FIG. 21D) at the saturating concentrations of p50 monomer (200 nM).
# The half-maximal amount of p50 was 238-300 ng (corresponding to approximately 600 nM). […] A similar trend was observed if 800CW dye was used as Cy5.5 fluorescence acceptor and the differences were also significant (p=0.02).
molecule,measurement,setting,value
"COc1ccc(C(OC[C@H]2O[C@@H](n3cc(C)c(=O)[nH]c3=O)C[C@@H]2OP(OCCOCCOCCNC(=O)C(F)(F)F)N(C(C)C)C(C)C)(c2ccccc2)c2ccc(OC)cc2)cc1 (stereo partly shown) [synthon 2, 5′-O-DMTr-thymidine-3′-O-(2-(2-(2-trifluoroacetamidoethoxy)-ethoxy)ethyl)-N,N-diisopropylphosphoramidite]",stability in dry acetonitrile,"[1]; dry acetonitrile, on synthesizer, room temperature",stable in dry acetonitrile for at least one week
same,coupling yield of the monomer,[1]; after 7-8 days,98-99%
same,coupling yield of the monomer,[1]; after additional 10-12 days,90%
same,stability of dry monomer on storage,[1]; stored six months at −20° C.,no apparent decrease in coupling efficiency
I/XIX: non-labelled duplex of I and XIX (chain 1 dCdGdGdAdAdAdGdT[TEGam]dCdCdCdTdCdAdTdAdGdCdT; chain 2 dAdGdCdTdAdTdGdAdGdGdGdAdCdTdTdTdCdCdG-{Y}),"Melting point, ° C., (method)","[2]; Table 3, method UV",64 (UV) ° C.
same,"Melting point, ° C, method",[2],64 (UV) ° C
ODN1/ODN3: non-labeled duplex of ODN1 and ODN3 (chain 1 CGGAAAGTCCCTCATAGCT; chain 2 dAdGdCdTdAdTdGdAdGdGdGdAdCdTdTdTdCdCdG-{Y}; chain 1: unmodified DNA) [reference compound],"Melting point, ° C, method",[2],66 (UV) ° C
CGGAAAGT^800CWCCCTCATAGCT [VIII],stability by HPLC analysis,[3],no signs of degradation
"ODN4/ODN5: duplex with truncated NF-κB p50 binding site GGAAAG (chain 1 TGGAAAGCTTTTTACAGTT; chain 2 AACTGTAAAAAGCTTTCCA; listed as DNA, chemistry not fully specified)","Melting point, ° C, method",[2],61 (UV) ° C
same,fluorescence changes in EMSA bands on p50 binding,NF-κB p50,no measurably significant fluorescence changes
